Where two headings read alike, the source gives them in different places.

One test has as its target T1, STAT6 (Homo sapiens, UniProt P42226).
T1 construct: stably transfected HaCaT keratinocyte cell line, which expresses NanoLuc luciferase reporter gene under the transcriptional control of the STAT6 responsive promoter; endogenous in cells; host or cells: HaCaT keratinocyte reporter cell line (stably transfected with a NanoLuc reporter)
T1 sequence (P42226 1-847): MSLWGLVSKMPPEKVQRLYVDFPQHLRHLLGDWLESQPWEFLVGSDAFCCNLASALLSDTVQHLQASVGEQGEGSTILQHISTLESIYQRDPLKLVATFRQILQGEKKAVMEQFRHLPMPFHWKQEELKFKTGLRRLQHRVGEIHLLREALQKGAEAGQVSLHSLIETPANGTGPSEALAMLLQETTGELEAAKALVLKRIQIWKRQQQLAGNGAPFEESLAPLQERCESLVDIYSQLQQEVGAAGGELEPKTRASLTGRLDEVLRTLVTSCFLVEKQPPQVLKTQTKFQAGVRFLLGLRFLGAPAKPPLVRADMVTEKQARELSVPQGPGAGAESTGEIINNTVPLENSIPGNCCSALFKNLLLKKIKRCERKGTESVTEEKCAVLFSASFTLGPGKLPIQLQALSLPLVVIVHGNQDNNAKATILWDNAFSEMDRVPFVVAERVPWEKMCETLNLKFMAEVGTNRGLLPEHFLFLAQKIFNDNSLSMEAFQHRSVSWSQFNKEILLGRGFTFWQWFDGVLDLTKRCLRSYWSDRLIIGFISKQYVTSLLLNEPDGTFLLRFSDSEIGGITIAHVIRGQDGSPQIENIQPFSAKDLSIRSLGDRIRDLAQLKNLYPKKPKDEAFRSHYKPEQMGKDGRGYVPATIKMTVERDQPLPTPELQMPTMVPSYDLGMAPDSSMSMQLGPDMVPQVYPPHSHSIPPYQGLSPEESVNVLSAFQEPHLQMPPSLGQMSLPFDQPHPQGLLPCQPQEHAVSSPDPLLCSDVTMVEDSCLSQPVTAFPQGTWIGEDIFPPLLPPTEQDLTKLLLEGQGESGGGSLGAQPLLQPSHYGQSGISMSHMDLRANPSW
Briefly: STAT6 Reporter Luciferase Assay (IL-13 stimulated HaCaT keratinocyte NanoLuc reporter cells). Conditions: read-out: Reporter EC50. The class given is cell-based. The gist of the method:
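Luminescence from a NanoLuc reporter driven by the STAT6-responsive IL-13Ra2 promoter in HaCaT keratinocytes serves as the read-out. Compounds are given 2 h before a 4 h stimulation with 0.12 nM IL-13.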

In test [1] the test system is CCL17 secretion in peripheral human whole blood. The test is described as follows: Human Whole Blood (HWB) CCL17 TR-FRET Assay (IL-13 stimulated CCL17 secretion). The format is cell-based. Conditions: Homo sapiens, 48 h. The method, then: The IC50 (half-maximal concentration required for inhibition) of compounds for the inhibition of CCL17 secretion in peripheral human whole blood, stimulated through the IL-13-IL-13 receptor/IL-4 receptor pathway was evaluated with a TR-FRET sandwich ELISA CCL17 (TARC) Assay Kit (Bioauxilium).
Test compounds (solubilized and serially diluted in DMSO, in an 11 point, 3-fold dilution series in duplicate) were spotted, 80 nL per well, into a 384 well v-bottom polypropylene plate. Human whole blood was collected from a peripheral vein, 714 units of sodium heparin was added for every 50 mL of blood collected. Sixty μL per well of blood was added to the compound plate. The blood plate was incubated for two hours at 37° C. After two hours, CCL17 production was stimulated with the addition of 20 μL per well of IL13 (R&D Systems) in HBSS with calcium and magnesium, with a final concentration of 10 ng/mL IL13. The plate containing blood, compound, and IL-13 was incubated at 37° C. for 48 hours, to allow for CCL17 production. After 48 hours, the plate was centrifuged at 1,500 revolutions per minute (RPM) for 7 minutes, with no braking. The CCL17 TR-FRET Assay Kit detection reagent was prepared according to kit instructions and 4 μL per well of the antibody cocktail was added to a 384-well white low volume non-binding coated plate (Corning). Sixteen μL of serum from the centrifuged blood plate was transferred to the detection plate containing the TR-FRET antibody cocktail. The plate was centrifuged briefly, then covered and incubated 16 hours at room temperature. The plate was then read on an EnVision 2105 multilabel reader (PerkinElmer) with settings for TR-FRET Ratio=10,000×(fluorescence intensity 665 nm/fluorescence intensity 615 nm).
(In general: Time-resolved FRET reads energy transfer from a long-lived donor to a nearby acceptor.)

Setting [2] is: STAT6 NanoLuc luciferase reporter, IL-13 stimulated HaCaT keratinocyte cells.
Where [3] appears, read: inhibition of CCL17 secretion in human whole blood, 10 ng/mL IL13, 48 hours.
[4] abbreviates: IL-13 stimulated HaCaT STAT6 NanoLuc reporter cells.
The mark [5] stands for this setting: human whole blood, IL-13 stimulated.

As for `CC(C)n1nc(C(=O)NCc2ccc(NC(=O)NCC3CCOC3)cc2)c2c1CCN(c1ccc(C(=O)N(C)C)cn1)C2` (racemic) [Example 155, rac-(R)-5-(5-(dimethylcarbamoyl)pyridin-2-yl)-1-isopropyl-N-(4-(3-((tetrahydrofuran-3-yl)methyl)ureido)benzyl)-4,5,6,7-tetrahydro-1H-pyrazolo[4,3-c]pyridine-3-carboxamide], the half-maximal effective concentration (EC50) on STAT6 (setting [2]) was 12 nM. The molecule further yielded an IC50 in test [1] (setting [3]) of 141 nM.

For `CC(C)n1nc(C(=O)NCc2ccc(NC(=O)N3CCC(C)(O)C3)cc2)c2c1CCN(c1ccc(C(=O)N(C)C)cn1)C2` (racemic) [Example 160, rac-(R)-5-(5-(dimethylcarbamoyl)pyridin-2-yl)-N-(4-(3-hydroxy-3-methylpyrrolidine-1-carboxamido)benzyl)-1-isopropyl-4,5,6,7-tetrahydro-1H-pyrazolo[4,3-c]pyridine-3-carboxamide], at STAT6 (setting [2]), the EC50 was determined as 15 nM. In test [1] (setting [3]), this molecule had a half-inhibitory concentration (IC50) of 21 nM.

For the molecule `CC(C)n1nc(C(=O)NCc2ccc(NC(=O)N3CCC4(CNCCO4)C3)cc2)c2c1CCN(c1ccc(C(=O)N(C)C)cn1)C2` (racemic) [Example 164, rac-(R)-N-(4-((5-(5-(dimethylcarbamoyl)pyridin-2-yl)-1-isopropyl-4,5,6,7-tetrahydro-1H-pyrazolo[4,3-c]pyridine-3-carboxamido)methyl)phenyl)-6-oxa-2,9-diazaspiro[4.5]decane-2-carboxamide], the 50% effective concentration (EC50) on STAT6 (setting [2]) came out at 13 nM. For the same molecule, the IC50 in test [1] (setting [3]) was 45 nM.

Regarding `CO[C@@H]1CN(C(=O)Nc2ccc(CNC(=O)c3nn(C(C)C)c4c3CN(c3ccc(C(=O)N(C)C)cn3)CC4)cc2)C[C@H]1F` (racemic) [Example 171, rac-5-(5-(dimethylcarbamoyl)pyridin-2-yl)-N-(4-((3R,4R)-3-fluoro-4-methoxypyrrolidine-1-carboxamido)benzyl)-1-isopropyl-4,5,6,7-tetrahydro-1H-pyrazolo[4,3-c]pyridine-3-carboxamide], the EC50 at STAT6 (setting [2]) was determined as 5 nM. Moreover, in test [1] (setting [3]), the IC50 came out at 57 nM.

For `CC(C)n1nc(C(=O)NCc2ccc(NC(=O)N3CCCC3CO)cc2)c2c1CCN(c1ccc(C(=O)N(C)C)cn1)C2` (racemic) [Example 174, rac-(R)-5-(5-(dimethylcarbamoyl)pyridin-2-yl)-N-(4-(2-(hydroxymethyl)pyrrolidine-1-carboxamido)benzyl)-1-isopropyl-4,5,6,7-tetrahydro-1H-pyrazolo[4,3-c]pyridine-3-carboxamide], the EC50 on STAT6 (setting [2]) was 40 nM. The molecule also had an IC50 in test [1] (setting [3]) of 212 nM.

`CC(C)n1nc(C(=O)NCc2ccc(NC(=O)N(C)CC3COCCO3)cc2)c2c1CCN(c1ccc(C(=O)N(C)C)cn1)C2` (racemic) [Example 176, rac-(R)-N-(4-(3-((1,4-dioxan-2-yl)methyl)-3-methylureido)benzyl)-5-(5-(dimethylcarbamoyl)pyridin-2-yl)-1-isopropyl-4,5,6,7-tetrahydro-1H-pyrazolo[4,3-c]pyridine-3-carboxamide]: the EC50 on STAT6 (setting [2]) amounted to 12 nM. Further, 51 nM corresponded to half-maximal inhibition in test [1] (setting [3]) (IC50).

For `CCc1nc(C(=O)NCc2ccc(NC(=O)N(C)C)cc2)c2n1C(C)CN(c1ccc(C(=O)N(C)C)cn1)C2` (racemic) [Example 205, rac-(R)-7-(5-(dimethylcarbamoyl)pyridin-2-yl)-N-(4-(3,3-dimethylureido)benzyl)-3-ethyl-5-methyl-5,6,7,8-tetrahydroimidazo[1,5-a]pyrazine-1-carboxamide], the EC50 at STAT6 (setting [4]) was found to be 5 nM. The molecule further displayed an IC50 in test [1] (setting [5]) of 19 nM.

Consider `CCC1CN(c2ccc(C(=O)N(C)C)cn2)Cc2c(C(=O)NCc3ccc(NC(=O)N(C)C)cc3)nn(C(C)C)c21` (racemic) [Example 246, rac-(R)-5-(5-(dimethylcarbamoyl)pyridin-2-yl)-N-(4-(3,3-dimethylureido)benzyl)-7-ethyl-1-isopropyl-4,5,6,7-tetrahydro-1H-pyrazolo[4,3-c]pyridine-3-carboxamide], for which the EC50 at STAT6 (setting [4]) was determined as 1 nM. Moreover, the IC50 in test [1] (setting [5]) came out at 10 nM.

As for `CCC1Cc2c(c(C(=O)NCc3ccc(NC(=O)N(C)C)cc3)nn2C(C)C)CN1c1ccc(C(=O)N(C)C)cn1` (racemic) [Example 249, rac-(R)-5-(5-(dimethylcarbamoyl)pyridin-2-yl)-N-(4-(3,3-dimethylureido)benzyl)-6-ethyl-1-isopropyl-4,5,6,7-tetrahydro-1H-pyrazolo[4,3-c]pyridine-3-carboxamide], at STAT6 (setting [4]), the concentration for a half-maximal effect (EC50) stood at 6 nM. Also, in test [1] (setting [5]), 31 nM corresponded to half-maximal inhibition (IC50).

Turning to `CC(C)n1nc(C(=O)NCc2ccc(NC(=O)N(C)C)cc2)c2c1CC(C(F)(F)F)N(c1ccc(C(=O)N(C)C)cn1)C2` (racemic) [Example 255, rac-(R)-5-(5-(dimethylcarbamoyl)pyridin-2-yl)-N-(4-(3,3-dimethylureido)benzyl)-1-isopropyl-6-(trifluoromethyl)-4,5,6,7-tetrahydro-1H-pyrazolo[4,3-c]pyridine-3-carboxamide], the EC50 on STAT6 (setting [4]) was 3 nM. It took 48 nM to reach half-maximal inhibition in test [1] (setting [5]) (IC50).

On to `CCC1Cc2c(c(C(=O)NCc3ccc(NC(=O)N(C)C)cc3)nn2C)CN1c1ccc(C(=O)N(C)C)cn1` (racemic) [Example 260, rac-(R)-5-(5-(dimethylcarbamoyl)pyridin-2-yl)-N-(4-(3,3-dimethylureido)benzyl)-6-ethyl-1-methyl-4,5,6,7-tetrahydro-1H-pyrazolo[4,3-c]pyridine-3-carboxamide], for which the EC50 at STAT6 (setting [4]) turned out to be 10 nM. Half-maximal inhibition in test [1] (setting [5]) (IC50) was put at 64 nM.

As to `CC(C)C1CN(c2ccc(C(=O)N(C)C)cn2)Cc2c(C(=O)NCc3ccc(NC(=O)N(C)C)cc3)nn(C)c21` (racemic) [Example 265, rac-(R)-5-(5-(dimethylcarbamoyl)pyridin-2-yl)-N-(4-(3,3-dimethylureido)benzyl)-7-isopropyl-1-methyl-4,5,6,7-tetrahydro-1H-pyrazolo[4,3-c]pyridine-3-carboxamide], the EC50 on STAT6 (setting [4]) was determined as 5 nM. This molecule also displayed an IC50 in test [1] (setting [5]) of 37 nM.

For `CCn1nc(C(=O)NCc2ccc(NC(=O)N(C)C)cc2)c2c1C(C(F)(F)F)CN(c1ccc(C(=O)N(C)C)cn1)C2` (racemic) [Example 282, rac-(R)-5-(5-(dimethylcarbamoyl)pyridin-2-yl)-N-(4-(3,3-dimethylureido)benzyl)-1-ethyl-7-(trifluoromethyl)-4,5,6,7-tetrahydro-1H-pyrazolo[4,3-c]pyridine-3-carboxamide], the 50% effective concentration (EC50) at STAT6 (setting [4]) worked out at 1 nM. Moreover, in test [1] (setting [5]), the IC50 is 9 nM.

Regarding `CCn1nc2c(c1C(=O)NCc1ccc(NC(=O)N(C)C)cc1)CN(c1ccc(C(=O)N(C)C)cn1)[C@H](C)[C@@H]2C` (racemic) [Example 314, rac-(6R,7S)-5-(5-(dimethylcarbamoyl)pyridin-2-yl)-N-(4-(3,3-dimethylureido)benzyl)-2-ethyl-6,7-dimethyl-4,5,6,7-tetrahydro-2H-pyrazolo[4,3-c]pyridine-3-carboxamide], the 50% effective concentration (EC50) on STAT6 (setting [4]) amounted to 1070 nM. In test [1] (setting [5]), this molecule displayed an IC50 of 6850 nM.

One may read the EC50 as the concentration at which the effect is half-maximal. A word on the IC50: it is the concentration at which inhibition is half-maximal. A higher IC50 goes with weaker potency in that assay.

(Values after US20250320213A1, “Nitrogen-Containing Heterocyclic Compounds” (Pfizer Inc., priority 2024, published 2025).)
